Data from PMC3275370 (The Journal of Cell Biology, 2012).

Assays:
[1] = test system: NS1; type: cell-based, influenza virus
[2] = test system: mRNA export block; type: cell-based
[3] = test system: A/WSN/1933; type: cell-based, influenza virus
[4] = test system: MDCK cells
[5] = test system: VSV M protein; type: cell-based, vesicular stomatitis virus
[6] = test system: HBECs; experiment: Measurements of cellular UMP, UDP and UTP levels by LC-MS/MS; type: cell-based, human; conditions: HBECs treated with compound
[7] = test system: VSV-GFP (Indiana strain); type: cell-based, vesicular stomatitis virus

CCOc1ccc(-c2cc(C(=O)O)c3cc(Cl)ccc3n2)cc1 [Compound 1, 6-chloro-2-(4-ethoxyphenyl)quinoline-4-carboxylic acid]
reversal of NS1 inhibition of host gene expression (luciferase activity) [1]: reverted the inhibition of host gene expression by NS1
poly(A)+ RNA distribution in influenza virus-infected cells [2]: normal distribution of mRNA in the nucleus and in the cytoplasm

O=C(O)c1cc(-c2ccc(Oc3ccccc3)cc2)nc2ccc(F)cc12 [Compound 1-14, 6-fluoro-2-(4-phenoxyphenyl)quinoline-4-carboxylic acid]
influenza virus replication [3]: virus replication was inhibited
reversal of NS1 inhibition of host gene expression (luciferase activity) [1]: reverted
cytotoxicity [4]: not cytotoxic
inhibition of gene expression by M protein [5]: reverted
NS1-mediated mRNA export block in absence of virus [2]: released
poly(A)+ RNA distribution in influenza virus-infected cells [2]: normal distribution of mRNA in the nucleus and in the cytoplasm
UMP and UDP pools [6]: down-regulated to a lesser extent
UTP levels [6]: reduced UTP levels
VSV replication [7]: down-regulated

Cc1ccc(-c2cc(C(=O)O)c3cc(Cl)ccc3n2)cc1 [Compound 1-10, 6-chloro-2-p-tolylquinoline-4-carboxylic acid]
antiviral effect on influenza virus [3]: no antiviral effect
antiviral effect on VSV [7]: no antiviral effect
